Results reported in patent US7713943B2, “Further use of protein kinase N beta” (Silence Therapeutics Aktiengesellschaft (AG), priority 2002, dated 2010).
Entries after “also recorded” stand apart in the source; their conditions may differ. Marks after values point to notes of the source that are not given here. One block for each compound: values may come before it.

Tests used:
[1] = test system: GST-GSK3 fusion protein; experiment: Non-radioactive in vitro kinase assay, anti-phospho GSK3alpha Western blot; assay type: biochemical; conditions: immune precipitates, 200 μM rATP, FIG. 11A
Description: The second half of the immune precipitates was incubated with 1 μg GST-GSK3 fusion protein (Cell Signaling Technology) as a phosphorylation substrate in the presence of 200 μM rATP. The reaction mixture was subsequently analyzed by 8-16% gradient SDS-PAGE and Western blotting using the anti-phospho GSK3alpha antibody (Cell Signaling Technology) (FIG. 11A).
The specificity of the in vitro phosphorylation reactions was controlled by analyzing kinase defective variants (e.g. containing mutations in the ATP binding site, see above) in parallel to active protein.
In a first step, the suitability of a non-radioactive screening formate was determined, whereby the various protein kinase N beta derivatives as already discussed in connection with example 10, were used for phosphorylating a suitable substrate. Such substrate may, for example, be MBP or a GSK3 peptide which is typically immobilised on a suitable carrier such as agarose- or sepharose beads or on plastic surfaces. In the present case and as depicted in FIG. 11A, the substrate is a GSK3-derived peptide fused to paramyosin. […] The phosphorylated substrate in the present case was detected by anti-phospho GSK3 alpha antibody (mentioned above).

[2] = test system: MPB (myelin basic protein); experiment: In vitro kinase activity of protein kinase N beta derivatives, MPB/MBP phosphorylation; assay type: biochemical; design: key to Activity: +: active; −: inactive; !: no “hyper activation” was observed as one might have expected from comparable mutations in other kinases (Morgan and Debond, 1994); conditions: for Activity: MPB substrate, FIG. 9
Description: The respective fragments were transiently epressed in HeLa cells. Their relative expression was determined by Western-blot analysis of Hela cell extracts using an anti-PKNbeta antibody.
MPB is myelin basic protein which is a standard in vitro phosphorylation substrate.
As may be taken from FIG. 9A apart from the full-length protein kinase N beta only the kinase domain in its otherwise wildtype form is active in phosphorylating MPB.
The PKNbeta-derived molecules were immune-precipitated from the cell extracts shown in FIG. 10 by using anti-tag antibodies. The immune precipitates were washed as described (Klippel et al., 1996) and divided in two halfs. One half was incubated with 5 μg MBP (UBI) as a phosphorylation substrate, 4 mM MgCl2 and gamma ^32P-ATP in a buffered solution for 10 min at room temperature. In addition, phosphatase inhibitors and inhibitors against unspecifically acting kinases were added as in Klippel et al., 1998. Incorporation of radioactive phosphate was detected by autoradiography after separating the reaction products by 16% SDS-PAGE (FIG. 11B).

[3] = test system: endogenous PKN-beta; experiment: Expression of endogenous PKN-beta after LY294002, Western blot, PC-3 cells; assay type: cell-based, human
Description: (§1) PC-3 cells were cultivated as described in example 1 herein. Said PC-3 cells are PTEN −/−. HeLa cells were obtained from the American Type Culture Collection (ATCC) and grown as described in Sternberger et al. (2002). Transfections were carried out in 10-cm plates (at 30% to 50% confluency) using Fugene 6 (Roche, Nutley, N.J.) according to the manufacturer's instructions. Cultivated cells were trypsinated and harvested following stopping the trypsin effect by medium. Both cell types, i.e. PC-3 cells and HeLa cells were treated for the indicated times with 10 μM LY294002 or DMSO, whereby DMSO was used as the solvent for LY294002 and, because of this, as negative control. The resulting extracts were fractionated by SDS-PAGE and subsequently analysed by Western-blotting. The levels of the indicated proteins such as p110, which served as a loading control, endogenous PKN-beta and phosphorylated Akt were detected using the respective antibodies. Phosphorylated Akt (P*-Akt) serves as a control for the efficacy of the LY294002-mediated treatment.

[4] = test system: endogenous PKN-beta; experiment: Expression of endogenous PKN-beta after LY294002, Western blot, HeLa cells; assay type: cell-based; conditions: 10 μM LY294002, 48 h
Description: as §1

[5] = test system: PKNbeta; experiment: Kinase activity and phosphorylation of recombinant PKN-beta from LY294002-treated HeLa cells; assay type: cell-based
Text: Recombinant wildtype PKN-beta or derivatives of PKN-beta (as described in FIGS. 10-11) were transiently expressed in HeLa cells. Said derivatives were PKN-beta derivative TA and derivative KE as described in example 10 herein. The PKN-beta was modified in each case by a myc-tag as described above which allowed the precipitation of PKN-beta and its derivatives using an anti-Myc antibody.
For the assessment of the activity of PKN-beta an in vitro kinase activity using the immune precipitates was carried out as described above. Half of the precipitates were subjected to the in vitro kinase reaction, the second half was analyzed by Western-blotting using anti-phospho-PRK antibodies. The filter was stripped and reprobed using the anti-PKN-beta antiserum. Phospho-p70 S6 Kinase levels were analyzed from aliquots of cell lysates, that were withdrawn earlier, to confirm the efficacy of the LY294002 treatment even after only 3 h treatment. The anti-phospho p70 antibody was obtained from Cell signaling.

[6] = transient overexpression in HeLa cells
[7] = LY294002 treatment, anti-phospho-PRK antibody

- phosphorylation of MBP, 32P incorporation ([2]; immune precipitates, gamma 32P-ATP, autoradiography, FIG. 11B): show activity
- phosphorylating MPB (FIG. 9A) [2, 6]: active
- Activity [2, 6]: +*
Compound: Kinase domain comprising amino acids 535-889: protein kinase N beta derivative, kinase domain comprising amino acids 535-889
- phosphorylation of GSK3-derived substrate [1]: suitable to phosphorylate the substrate; also recorded: show activity

- Activity [2, 6]: −*!
Compound: TD718: kinase domain derivative, threonine at position 718 changed to aspartic acid

The next lines start with the compound.

Compound: TA718: kinase domain derivative, threonine at position 718 changed to alanine
- Activity [2, 6]: −*

Compound: TE718: kinase domain derivative, threonine at position 718 changed to glutamic acid
- Activity [2, 6]: −*!

Compound: O=c1cc(N2CCOCC2)oc2c(-c3ccccc3)cccc12 [LY294002, 2-(4-morpholinyl)8-phenylchromone]
- endogenous PKNbeta expression (protein level) ([3]; 10 μM LY294002, 24 h): visible reduction
- endogenous PKNbeta expression (protein level) ([3]; 10 μM LY294002, 48 h): further reduced
- endogenous PKNbeta expression (protein level) [4]: reduced amounts can be detected
- kinase activity of PKNbeta, phosphorylation of MBP ([5]; 3 h of LY294002 treatment): visible
- kinase activity of PKNbeta, phosphorylation of MBP ([5]; 24 h of LY294002 treatment): almost completely inhibited
- kinase activity of PKNbeta, phosphorylation of MBP ([5]; LY294002 treatment of HeLa cells prior to lysis, FIG. 13): strong inhibition
- phosphorylation of PKNbeta at position 718 [5, 7]: compromised
- phosphorylation status of PKN-beta derivative KE [5, 7]: to some extent affected
